Measurements published in patent US20190030182A1, “WATER-SOLUBLE POLYMER-LINKED BINDING MOIETY AND DRUG COMPOUNDS” (Nektar Therapeutics, priority 2011, published 2019).

Assays:
[1] = system: SK-N-SH cells (Her2 negative); test: In vitro cytotoxic activity (CytoTox-Glo), SK-N-SH; assay type: cell-based; settings: Homo sapiens, 48 hours, medium pH 6.5
Procedure: (§1) The conjugates were also tested in a Her2 negative cell line, […] as an experimental control. Serial dilutions of the conjugates and control compound were prepared. Cells were lifted from the flask using 2 mL of trypsin for 5 min, neutralized with 8 mL of complete growth medium, and centrifuged at 1200 rpm for 5 min. The supernatant was aspirated and the cell pellet was washed with PBS, centrifuged, then resuspended in complete growth medium (McCoy's for SKOV3 and RPMI-1640 for N87 and SK-N-SH, supplemented with 10% heat inactivated FBS), pH 6.5. Cells were counted, diluted, and then plated in white, clear bottom 96-well plates at a density of 20,000 cells/well, then followed immediately by addition of conjugates and control compound. Cells were incubated with the test articles for 48 hours in a 37° C., 5% CO^2 incubator, and then analyzed for cytotoxic activity using Promega CytoTox-Glo chemiluminescent reagent (Cat#G9291). Signal was quantified with a Perkin Elmer TopCount plate reader, and the data was analyzed using the GraphPad Prism software. FIGS. 4, 5, and 6 are linear regression graphs for each cell line where mean RLU is plotted vs. concentration.

[2] = Body weight in the N87 xenograft study; assay type: in vivo, female SCID mice
Procedure: Where: L=length of the tumor in millimeters and W=width of the tumor in millimeters Tumor growth on each animal was monitored to a maximum volume of […]. Animals were weighed prior to implantation and at least twice weekly for the duration of the study.
Mean body weights ranged from 19.6±0.4 g to 20.7±0.5 g (Mean±SEM) on treatment day (FIG. 10). Greatest mean body weight loss observed was 4% in group 3 (docetaxel, 20 mg·kg) on day 4 followed by group 2 (Docetaxel, 10 mg/kg) at 2% observed on days 4 and 7 (FIG. 11). No abnormal clinical observations were noted throughout the study.

[3] = system: N87 gastric carcinoma xenografts; test: Antitumor activity in N87 (HER2 overexpressing gastric carcinoma) xenografts; assay type: in vivo, female SCID mice; settings: single i.v.; for Animals with tumors in inhibition (number/group) / Animals with tumors in regression (number/group) / Mean Tumor Growth Inhibition / Regression: Day 35; for Highest Tumor Volume Recorded / Lowest Tumor Volume Recorded / Tumor Volume on Study Termination (Day 35) / Tumor Volume on Treatment Initiation (Day 0): Mean±SEM; for Tumor Volume on Treatment Initiation (Day 0): baseline
Description: The objective of this study was to evaluate the antitumor activity of a single administration of anti-HER2 targeted PEG-conjugated docetaxel on N87 gastric carcinoma xenografts in female SCID mice.
Animal Husbandry: Female C.B.-17 SCID mice (5-6 weeks old), purchased from Charles River Laboratories were used for this study. Upon arrival, the mice were housed in ventilated polycarbonate cages with sterile bedding at five animals per cage and acclimated for a minimum of three days. The cages were identified by cage labels or tags. Sterilized (autoclaved or irradiated) water and commercial rodent diet were supplied ad libitum. Cages, bedding and water bottles were changed at least once a week and food was replenished as needed. The animals were maintained at a temperature
Tumor Cell Preparation: All handling and preparation of cells were conducted in a biosafety cabinet for sterility and safety. N87, gastric carcinoma cells from the NEKTAR liquid nitrogen freezers were used for this study. The cells were grown in sterile tissue culture flasks with RPMI 1640 media containing 10% Fetal Bovine Serum (FBS) until 85% confluence. To prepare for implantation, the cells in the flasks were rinsed briefly with an appropriate amount of 0.25% trypsin solution. The rinsate was removed and replaced with 2 to 3 mL of fresh 0.25% trypsin solution. The flasks were then placed in a 37′C incubator for 5 minutes. When the cells dissociated, an appropriate amount of complete growth media was added to neutralize the trypsin. The suspension was centrifuged at 1000 rpm for 10 minutes after which the supernatant was discarded. The cells were washed by resuspending the pellet in an appropriate volume of serum free media. A sample was removed for counting and the rest of the suspension was again centrifuged at 1000 rpm for 10 minutes. After centrifugation, the supernatant was discarded and the cell pellet resuspended in serum free media at an appropriate volume determined by the cell count.
Tumor Cell Implantation: All handling of animals and procedures were done in a biosafety cabinet. The animals' flanks were shaved prior to the day of implantation. The mice were anesthetized via isoflurane inhalation, when in proper anesthetic plane; the flanks were wiped with 70% isopropanol followed by implantation of the NCI N87 cells at 1×10^7 cells/site in 0.2 mL volume (in 50% Matrigel®) injected subcutaneous on the right flank of the animals. The animals were distributed accordingly based on the randomization generated by the StudyLog® software.
Treatment Groups: There were 5 groups with 8 to 10 animals each. Included were vehicle (Saline), Docetaxel at 10 mg/kg and 20 mg/kg, Affibody A-linear 2 kD PEG-docetaxel 10 mg/kg (Example 6) (Docetaxel concentration) and Affibody A-linear 20 kD PEG-docetaxel at 10 mg/kg (Example 6) (Docetaxel concentration) respectively.
Treatment Administration: The animals were distributed based on the randomization generated by the StudyLog® software. The mean tumor volumes on treatment day (Day 0) ranged from 209±8 mm^3 to 239±15 mm^3 (Mean±SEM). All test articles were diluted in sterile saline to the appropriate concentration and were administered as single dose to the appropriate treatment group via intravenous injection (i.v.). Animals were warmed in clear acrylic hotboxes to facilitate venous dilation. While in the hotboxes, the animals were closely observed for signs of overheating and distress. When the animals were amply warmed, they were removed from the hotboxes and transferred into appropriate mouse restrainers. The tails were wiped with alcohol pads and the test article in a syringe with a 27 gauge needle was injected into the lateral tail vein. Maximum treatment volume for the i.v. injections will not exceed 20 mL/kg.
Tumor Measurements and Body Weights: Tumors size was monitored at least twice weekly. Dimensions (length and the width) were measured using digital calipers. Tumor volume was computed using the formula: […]

[4] = system: NCI-N87 cells (Her2 positive); test: In vitro cytotoxic activity (CytoTox-Glo), NCI-N87; assay type: cell-based; settings: Homo sapiens, N87, 48 hours, medium pH 6.5
Procedure: as §1

[5] = system: SKOV-3 cells (Her2 positive); test: In vitro cytotoxic activity (CytoTox-Glo), SKOV-3; assay type: cell-based; settings: Homo sapiens, SK-OV-3; SKOV3, 48 hours, medium pH 6.5
Procedure: as §1

CC(=O)O[C@@]12CO[C@@H]1C[C@H](O)[C@@]1(C)C(=O)[C@H](O)C3=C(C)[C@@H](OC(=O)[C@H](O)[C@@H](NC(=O)OC(C)(C)C)c4ccccc4)C[C@@](O)([C@@H](OC(=O)c4ccccc4)[C@H]21)C3(C)C [Docetaxel, reference compound]
EC50 [1]: 1.97 nM | Mean body weight loss ([2]; 10 mg/kg, days 4 and 7): 2% | Greatest mean body weight loss ([2]; 20 mg·kg, day 4): 4% | Animals with tumors in inhibition (number/group) ([3]; Docetaxel Dose 10 mg/kg): (9/10) | Animals with tumors in regression (number/group) ([3]; Docetaxel Dose 10 mg/kg): (1/10) | Mean Tumor Growth Inhibition ([3]; Docetaxel Dose 10 mg/kg): 67.5% | Regression ([3]; Docetaxel Dose 10 mg/kg): 26% | Highest Tumor Volume Recorded ([3]; Docetaxel Dose 10 mg/kg): 452 ± 80 mm^3 | Lowest Tumor Volume Recorded ([3]; Docetaxel Dose 10 mg/kg): 182 ± 25 mm^3 | Tumor Volume on Study Termination (Day 35) ([3]; Docetaxel Dose 10 mg/kg): 452 ± 80 mm^3 | Tumor Volume on Treatment Initiation (Day 0) ([3]; Docetaxel Dose 10 mg/kg): 224 ± 19 mm^3 | Animals with tumors in inhibition (number/group) ([3]; Docetaxel Dose 20 mg/kg): (9/10) | Animals with tumors in regression (number/group) ([3]; Docetaxel Dose 20 mg/kg): (1/10) | Mean Tumor Growth Inhibition ([3]; Docetaxel Dose 20 mg/kg): 85% | Regression ([3]; Docetaxel Dose 20 mg/kg): 10% | Highest Tumor Volume Recorded ([3]; Docetaxel Dose 20 mg/kg): 330 ± 33 mm^3 | Lowest Tumor Volume Recorded ([3]; Docetaxel Dose 20 mg/kg): 145 ± 8 mm^3 | Tumor Volume on Study Termination (Day 35) ([3]; Docetaxel Dose 20 mg/kg): 330 ± 33 mm^3 | Tumor Volume on Treatment Initiation (Day 0) ([3]; Docetaxel Dose 20 mg/kg): 225 ± 12 mm^3 | EC50 [4]: 0.00544 nM | EC50 [5]: 1.9 nM
